# Experimental data as given in patent US8946119B2, “Chitooligosaccharides and methods for use in enhancing soybean growth” (Novozymes BioAg A/S, priority 2011, dated 2015).
# Assays:
# [1] = system: Soybean seeds (Jung seed, var. 8168NRR); assay: Greenhouse soybean seed treatment, leaf surface area; assay type: in vivo; conditions: seed treatment 3 fl oz/100 lbs of seed; seedlings grown 4 wks; central leaflet of 2nd trifoliate; vs control (water); FIG. 5
# Procedure: Soybean seeds (Jung seed, var. 8168NRR) were treated with various active molecules. Seeds were treated with a liquid dose rate of 3 fl oz/100 lbs of seed. Seeds were allowed to dry for a 2 hours and planted in greenhouse in plastic pots containing 1:1 sand:perlite mixture. Seedlings were grown for 4 wks with occasional liquid fertilizer applications and then the plants were harvested. The central leaflet from the 2nd trifoliate (from down to top) was isolated and measured for surface area on a WinRhizo scanner. The rest of the plants were used for plant dry weight (DW).
# [2] = system: soybean foliage; assay: Soybean field trials, foliar treatment, grain yield; conditions: in vivo
# [3] = system: Soybean seeds (Pioneer 9oM80); assay: Soybean seed treatment in petriplates, radicle length; assay type: in vivo; conditions: germination paper soaked with 5 ml of treatment solution; radicles measured after 48 hours; FIG. 7
# Procedure: Soybean seeds (Pioneer 9oM80) were plated in petriplates on moist germination paper soaked with 5 ml of treatment solution containing either water or Soybean LCO, Pea CO and CO plus fatty acids. Seedling radicles were isolated after 48 hours and measured for their length.
# [4] = system: Soybean plants (Jung seed, var. 8168NRR); assay: Greenhouse soybean foliar treatment, plant dry biomass; assay type: in vivo; conditions: foliar application at V4 growth stage, FIG. 8
# Procedure: Soybean plants (Jung seed, var. 8168NRR) were treated with various active molecules at V4 growth stage. Plant were grown from seeds in greenhouse in plastic pots containing 1:1 sand:perlite mixture. Seedlings were grown for 4 wks with occasional liquid fertilizer applications and then the plants were harvested.
Substance,leaf surface area [1],Positive Yield Response (%) [2],Response (bu/A) over Control [2],Response Increase (% of Control) [2],"YIELD, Mean (N = 19) [2]",radicle length [3],plant dry biomass [4],plant dry biomass ([4]; listed as LCO)
LCO-V (C18:1) [LCO (SP104)],significant increase in leaf surface area,68.4%,1.8 bu/A,3%,58.3 bu/A,,,
"LCO-V(C18:1, MeFuc) [soybean LCO]",,,,,,better seed radicle growth enhancement over control and CO,no significant effect on plant dry biomass increase,relatively higher than the control plants
